Source: patent US20250161297A1, “COMPOSITIONS AND METHODS FOR INHIBITING FSP1” (THE REGENTS OF THE UNIVERSITY OF CALIFORNIA, priority 2022, published 2025)
“Also recorded” adds a separate entry of the source. Residues, ends and D or L forms follow the SMILES beside them. *: point of attachment. Cbz = O=C(OCc1ccccc1)*; CH2F = FC*

Experiments:
H460^C FSP1^KO cells = assay: FDA and Bioactive Library synthetic lethal screen; type: cell-based; details: 24 h
Description: FDA and Bioactive Library Screen: For FDA and Bioactive Library Screen experiments, cells were seeded at a density of 750 cells per 25 uL per well in black 384-well plates (NUNC) and (Corning) 24 hr before start of imaging. After 24 hr, an additional 25 μL of drug infused medium containing 30 nM SYTOX Green Dead Cell Stain was carefully placed into the wells on top of existing medium. The plates were immediately transferred to an IncuCyte S3 imaging system (Essen Bioscience) enclosed in an incubator set to 37° C. and 5% CO2. One image per well were captured in the phase, green, and red channels every 4 hr over a 24 hr period, and the ratio of SYTOX Green-positive objects (dead cells) to SYTOX Green-positive plus SgSAFE mCherry-positive objects (total cells) was quantified using S3 image analysis software (Essen Bioscience). For each treatment condition, the SYTOX-to-‘SYTOX+mCherry’-object ratio was plotted against the 24 hr imaging interval, the Area Under the Curve (AUC) was calculated, and the average AUC was plotted as a function of drug concentration (for example, RSL3) using Prism (GraphPad). To calculate the half-maximal effective concentration (EC50) values, the AUC curve was fit to a variable slope function comparing response to drug concentration. […]

H460^C cells [1] = assay: DHA- and FINO2-induced cell death with FSEN1 co-treatment; type: cell-based
Description: (§1) For cell-based screen, cells were seeded in triplicate at a density of 500-750 cells per 50 μL per well in black 384-well plates (NUNC) and (Corning) 24 hr before start of imaging. After 24 hr, an additional 50 μL of drug infused medium containing 30 nM SYTOX Green Dead Cell Stain was carefully placed into the wells on top of existing medium. The plates were immediately transferred to an IncuCyte S3 imaging system (Essen Bioscience) enclosed in an incubator set to 37° C. and 5% CO2. One image per well were captured in the phase, green, and red channels every 1.5 or 3 hr over a 24 hr period, and the ratio of SYTOX Green-positive objects (dead cells) to SYTOX Green-positive plus Sg-SAFE mCherry-positive objects (total cells) was quantified using S3 image analysis software (Essen Bioscience). For each treatment condition, the SYTOX-to-′SYTOX+mCherry′-object ratio was plotted against the 24 hr imaging interval, the Area Under the Curve (AUC) was calculated and the average AUC was plotted using Prism (GraphPad). To calculate the half-maximal effective concentration (EC50) values, the AUC curve was fit to a variable slope function comparing response to drug concentration.
(§2) Synergy experiments: For cell-based synergy experiments, cells were seeded at a density of 750 cells per 25 μL per well in four black 384-well plates (Corning) 24 hr before start of imaging. After 24 hr, an additional 25 μL of drug infused medium containing 30 nM SYTOX Green Dead Cell Stain was carefully placed into the wells on top of existing medium. The plates were immediately transferred to an IncuCyte S3 imaging system (Essen Bioscience) enclosed in an incubator set to 37° C. and 5% CO2. One image per well were captured in the phase, green, and red channels every 4 hr over a 24 hr period, and the ratio of SYTOX Green-positive objects (dead cells) to SYTOX Green-positive plus Sg-SAFE mCherry-positive objects (total cells) was quantified using S3 image analysis software (Essen Bioscience). For each treatment condition, the SYTOX-to-′SYTOX+mCherry′-object ratio was plotted against the 24 hr imaging interval, the Area Under the Curve (AUC) was calculated, and the average AUC was plotted as a function of drug concentration (for example, RSL3) using Prism (GraphPad). To calculate the half-maximal effective concentration (EC50) values, the AUC curve was fit to a variable slope function comparing response to drug concentration.

H460^C cells [2] = assay: GPX4 inhibitor-induced cell death with FSEN1 co-treatment; type: cell-based
Description: as §1, §2

[3] = test system: panel of cancer cell lines of various tissue origins; assay: RSL3-induced cell death in a panel of cancer cell lines; type: cell-based; details: RSL3 plus FSEN1; 2 μM Fer-1
Description: as §1, with “concentration. […]” for “concentration.”

[4] = target: T1, His tagged FSP1 (WT) protein (Homo sapiens, UniProt Q9BRQ8); assay: in vitro FSP1 activity assay (NADH oxidation during CoQ1 reduction, 355 nm absorbance); type: biochemical; details: inhibition of FSP1 Coenzyme Q1 oxidoreductase activity in vitro
T1 construct: made in house; host or cells: E. coli LOBSTR-BL21 (DE3)
T1 sequence (Q9BRQ8 1-373): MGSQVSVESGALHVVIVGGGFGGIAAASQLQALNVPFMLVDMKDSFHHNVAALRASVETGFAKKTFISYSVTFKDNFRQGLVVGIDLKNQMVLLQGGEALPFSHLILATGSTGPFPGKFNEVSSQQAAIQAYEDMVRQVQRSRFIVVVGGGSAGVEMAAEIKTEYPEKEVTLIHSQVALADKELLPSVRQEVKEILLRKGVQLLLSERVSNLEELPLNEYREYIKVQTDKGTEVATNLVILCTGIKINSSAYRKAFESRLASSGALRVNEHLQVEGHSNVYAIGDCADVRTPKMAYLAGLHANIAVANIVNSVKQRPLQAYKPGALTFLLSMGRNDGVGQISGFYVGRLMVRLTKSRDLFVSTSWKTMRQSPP
Description: For small molecule drug screen, 0.5 μL of compounds were stamped into 384 well NBS plates (Corning) in dose response diluted 2-fold with a high of 2 mM. 60 mL of purified His tagged FSP1 (WT) protein at 50 nM was prepared and 12.5 μL of this protein solution was aliquoted into 384 well NBS-plates (Corning) containing compound and allowed to incubate for 30 min at room temperature. After 30 min incubation 12.5 μL of reaction buffer (1 mM NADH, 800 µM CoQ1) was added into the 384 well NBS-plates containing protein and compounds for a final concentration of 25 nM His tagged FSP1 (WT) protein, 500 µM NADH (Sigma-Aldrich) and 400 µM CoQ1 (Sigma-Aldrich). Each well contained a 25 μL mixture and 40 µM compound in the primary screen. […] Measurements were taken at 355 nm with a EnVision 2104 multilabel plate reader (PerkinElmer). […] Compounds with confirmed data that have normalized absorbance values of less than 0.164 were chosen for dose response. […]
To measure NADH oxidation kinetics, 25 nM recombinant FSP1 was combined with 500 µM NADH and C400 µM Coenzyme Q1 in a total volume of 100 μl PBS. The change in absorbance at 355 nm, corresponding to NADH oxidation, was determined over the course of 4 h. All measurements were taken using a SpectraMax i3 Multi-Mode Platform plate reader (Molecular Devices). […]

H460^C GPX4^KO cells = assay: cell-based assay of FSP1 activity, cell death (SYTOX Green/mCherry lethal fraction)
Description: as §1
In addition to the in vitro activity assay, an orthogonal cell-based assay of FSP1 activity was also developed. […]

H460^C Cas9 cells = assay: cell-based assay, cell death in control cells
Description: as §1, with “concentration. […]” for “concentration.”
Employing this assay, the amount of cell death induced by 168 FSP1 inhibitors in the H460^C Cas9 and H460^C GPX4^KO cells was assessed. […]

Compound | effect on cell death induced by co-treatment of FSEN1 with RSL3 (H460^C cells [2]) | effect on cell death induced by DHA and FSEN1 together (H460^C cells [1]) | further results
C[C@H]1[C@@H](O)O[C@@H]2O[C@@]3(C)CC[C@H]4[C@H](C)CC[C@@H]1[C@@]24OO3 [DHA, dihydroartemisinin] |  |  | cytotoxicity in H460^C FSP1^KO cells (H460^C FSP1^KO cells): selectively induced cell death; EC50 (H460^C cells [1]; DHA and FSEN1 treatment together): 21.3 µM
CN1C(=O)NC(Cc2c[nH]c3c(Cl)cccc23)C1=O (stereo not drawn) [Nects] | no effect |  | 
COC(=O)c1ccc([C@@H]2c3[nH]c4ccccc4c3C[C@@H](C(=O)OC)N2C(=O)CCl)cc1 [RSL3] |  |  | cytotoxicity in H460^C FSP1^KO cells (H460^C FSP1^KO cells): cytotoxic
COC(=O)C[C@H](NC(=O)[C@H](C)NC(=O)[C@@H](NC(=O)OCc1ccccc1)C(C)C)C(=O)CF [Z-VAD] (Cbz-Val-Ala-Asp(OMe)-CH2F) | no effect |  | 
CCOC(=O)c1ccc(NC2CCCCC2)c(N)c1 [ferrostatin-1] | blocked | strongly suppressed | effect on cell death by co-treatment [3]: rescued
Cc1ccc(-c2c(C#N)c(N)n3c(nc4ccccc43)c2C#N)cc1 [iFSP1] |  |  | IC50 [4]: 4.01 µM; cell death in H460^C GPX4^KO cells (H460^C GPX4^KO cells): sufficient to trigger ferroptosis; also recorded: selectively triggered cell death; cell death in H460^C Cas9 cells (H460^C Cas9 cells): but not in the H460^C Cas9 cells
COC1=C(OC)C(=O)C(CCCCCCCCCCO)=C(C)C1=O [idebenone] | blocked | strongly suppressed | 
tocopherol | blocked | strongly suppressed | 
